Reference: paper PMC3546861, “HLA-A*0201-restricted CD8^+ T-cell epitopes identified in dengue viruses” (Virology Journal, 2012)
Entries after “also recorded” stand apart in the source; their conditions may differ.

Tests used:
[1] = target: HLA-A*0201 molecule of T2 cells (Homo sapiens, UniProt P04439, D140Y/D185E/D98H/E176V/E277Q/G131W/G231S/I119V/I121R/I166T/I218V/L300P/L318F/N151K/N90K/P208A/P217A/Q86G/Q94H/R138H/R169H/T345S); assay: MHC-peptide complex stabilization assay on T2 cells; assay type: binding; parameters: key: FI = (MFI sample − MFI background) / MFI background; conditions: serum-free RPMI 1640, 1 h 37°C, 12 h 26°C, 3 h 37°C, FITC anti-HLA-A*0201, flow cytometry, FI = (MFI sample - MFI background)/MFI background
Experimental: Figure 1 The affinity of candidate epitopes for HLA-A*0201 molecules. T2 cells were incubated in RPMI 1640 medium lacking peptides (red) or containing low peptide (1 μg/ml) (green) or intermediate peptide (10 μg/ml) (purple) or high peptide (100 μg/ml) (blue) for 15 h and stained with FITC-conjugated anti-HLA-A*0201 antibody. Then, mean fluorescence intensity (MFI) was measured using flow cytometry.
The ability of peptides to stabilize MHC molecules on the surface of T2 cells was measured as described previously. T2 cells (2 × 10^5 cells/0.5 ml) were incubated in serum-free RPMI 1640 medium in the presence of different concentrations of peptide (1, 10, 100 μg/ml) for 1 h at 37°C/5% CO2 incubator. Cells were then incubated at 26°C for 12 h, and then returned to 37°C for a 3 h incubation. Finally, T2 cells were stained with FITC-conjugated anti-HLA-A*0201 antibody (BD Pharmingen, USA) for 40 min at 4°C. T2 cells incubated in serum-free RPMI 1640 medium without peptides served as a negative control (background). Mean fluorescence intensity (MFI) of T2 cells was recorded with a FACS Calibur flow cytometer (BD bioscience, USA), and results expressed as fluorescence index (FI). The following formula was used to calculate the FI.
(1) FI=MFI sample-MFI background/MFI background

[2] = test system: HLA-A*0201 transgenic mice; assay: ICS assay for CD8+ IFN-γ+ T cells in splenocytes of peptide-immunized mice; assay type: in vivo, mouse; conditions: for ICS CD8^+IFN-γ^+T cells, proportion in CD8^+ T cells: mice immunized s.c. with peptide 50 μg/mouse in Freund's adjuvant, 5 weekly doses, splenocytes stimulated with cognate peptide 10 μg/ml, 6 h, brefeldin A, CD3+CD8+ gate, mean ± SD, 4 mice/group, SD; for Cross-reactivity of peptide-specific CD8^+ T cells towards heterologous variant peptides: splenocytes of peptide-immunized mice stimulated with heterologous peptide 10 μg/ml, ELISPOT and ICS (Figures 4 and 7), result in words
Experimental: (§1) HLA-A*0201 transgenic mice were subdivided into 12 groups (4 mice/group). Mice were inoculated subcutaneously with high-affinity peptide (50 μg/mouse) emulsified in Freund’s complete adjuvant. One week later, mice were immunized with the same peptide emulsified in Freund’s incomplete adjuvant. Mice were boosted three more times at weekly intervals. Mock-immunized (adjuvant alone) HLA-A*0201 transgenic mice and peptide-immunized C57BL/6 mice served as controls. One week after the final immunization, all mice were sacrificed and splenocytes extracted. ELISPOT and ICS assays were conducted to detect the frequencies of peptide-specific IFN-γ-producing cells. All animal were performed following the Institutional Animal Care and Use Committee-approved protocols.
Splenocytes were cultured with either cognate peptide (10 μg/ml) or heterologous peptide (10 μg/ml) in a 1.5 ml microcentrifuge tube for 6 h at 37°C/5% CO2. […] During the last 5 h, brefeldin A (10 μg/ml) was added to each tube. After a 6 h incubation, cells were washed and then stained with APC-conjugated anti-mouse CD3 and FITC-conjugated anti-mouse CD8 antibodies (eBioscience company, USA) for 40 min at 4°C. Cells were then washed and fixed with 4% paraformaldehyde for 20 min at 4°C, permeabilized using 0.5% saponin for 10 min at 4 °C, and stained with PE-conjugated anti-mouse IFN-γ antibody (eBioscience company, USA) for 40 min at 4°C. A FACS Calibur flow cytometer (BD Bioscience, USA) was used to analyze labeled cells. CD3^+ CD8^+ T cells were gated and the proportion of IFN-γ-producing CD8^+ T cells (CD8^+ IFN-γ^+ T cells) as a subset of all CD8^+ T cells were determined.

[3] = test system: HLA-A*0201 transgenic mice; assay: IFN-γ ELISPOT assay on splenocytes of peptide-immunized mice; assay type: in vivo; conditions: mice immunized s.c. with peptide 50 μg/mouse in Freund's adjuvant, 5 weekly doses, splenocytes stimulated with cognate peptide 10 μg/ml, 24 h, background subtracted, mean ± SD, 4 mice/group
Experimental: as §1
Splenocytes were resuspended to a final concentration of 1 × 10^6 cells/ml in RPMI 1640 medium supplemented with 10% fetal bovine serum (FBS). ELISPOT assays were performed in pre-coated 96-well plates (U-CyTech Company, Netherlands). Splenocytes were seeded at 1 × 10^5 cells/well and exposed to either cognate or heterologous peptide at a final concentration of 10 μg/ml. Negative control wells contained splenocytes but no peptide. Positive control wells included cells plus phytohemagglutinin (PHA) at a final concentration of 10 μg/ml. All tests were carried out in duplicate wells, with plates incubated for 24 h at 37°C/5% CO2. Plates were washed and then incubated with biotinylated anti-mouse IFN-γ for 1 h at 37°C. After washing, plates were labeled with streptavidin-horseradish peroxidase, and developed using fresh ACE solution as a substrate. IFN-γ spots were counted using an ELISPOT reader (Beijing SageCreation Science Co. Ltd, Beijing, China). Peptide-specific T-cell frequency was expressed as SFCs/1 × 10^5 splenocytes. Background spots (negative control wells) were subtracted from test wells. A positive response to a peptide was defined as having > 5 SFCs/1 × 10^5 splenocytes after subtraction of the background.

Sequence	FI (fluorescence index) ([1]; peptide 1 μg (1 μg/ml))	FI (fluorescence index) ([1]; peptide 10 μg (10 μg/ml))	FI (fluorescence index) ([1]; peptide 100 μg (100 μg/ml))	FI (fluorescence index) ([1]; peptide 100 μg (100 μg/ml), listed as D1V-NS2a144–152)	ICS CD8^+IFN-γ^+T cells, proportion in CD8^+ T cells [2]	ELISPOT IFN-γ spot-forming cells [3]	FI (fluorescence index) ([1]; peptide 100 μg (100 μg/ml), listed as D2V-NS4b182–190)	Cross-reactivity of peptide-specific CD8^+ T cells towards heterologous variant peptides [2]	FI (fluorescence index) ([1]; peptide 100 μg (100 μg/ml), listed as D4V-NS4b179–187)	FI (fluorescence index) ([1]; peptide 100 μg (100 μg/ml), listed as D1V-NS4b183–191)	FI (fluorescence index) ([1]; peptide 100 μg (100 μg/ml), listed as D3V-NS4b182–190)	FI (fluorescence index) ([1]; peptide 100 μg (100 μg/ml), listed as D2V-NS2a144–152)	FI (fluorescence index) ([1]; peptide 100 μg (100 μg/ml), listed as D3V-NS2a144–152)
AMVLSIVSL [D1V-NS2a169-177]	0.03	0.05	0.04										
QLWAALLSL [D1V-NS2a144-152]	0.05	0.22	1.12	exceeds 1	0.41 ± 0.07%	36 ± 6 SFCs/1×10^5cells							
LMMRTTWAL [D2V-NS4b182-190, D2V variant peptide of D1V-NS4b183-191, nonapeptide …]	0.58	3.42	4.8		0.37 ± 0.09%	37 ± 5 SFCs/1×10^5cells	> 4	cross-reacted with each other					
QVGTLALSL [D4V-NS2a143-151, D4V variant peptide of D1V-NS2a144-152, nonapeptide …]	0.22	0.2	0.8		0.13 ± 0.06%	12 ± 3 SFCs/1×10^5cells							
LLMRTTWAF [D4V-NS4b179-187, D4V variant peptide of D1V-NS4b183-191, nonapeptide …]	0.2	0.59	4.4		0.16 ± 0.06%	22±4 SFCs/1×10^5cells		cross-reacted with each other	> 4				
LVMAFMAFL [D1V-C46-54]	0.01	0.02	0.02										
MLLALIAVL [D1V-NS4a56-64]	0.05	0.05	0.08										
GILTLAAIV [D3V-NS4a140-148, D3V variant peptide of D1V-NS4a140-148, nonapeptide …]	0.1	0.15			0.37 ± 0.08%	37 ± 6 SFCs/1×10^5cells							
LLMRTTWAL [D1V-NS4b183-191]	0.29	0.4	1.95		0.44 ± 0.09%	42 ± 7 SFCs/1×10^5cells		marked cross-reactivity; also recorded: cross-reacted with each other		exceeds 1			
LLMRTSWAL [D3V-NS4b182-190, D3V variant peptide of D1V-NS4b183-191, nonapeptide …]	0.22	0.65	3.6		0.27 ± 0.07%	24 ± 5 SFCs/1×10^5cells		cross-reacted with each other			> 1		
TILTIIGLI [D4V-NS4a140-148, D4V variant peptide of D1V-NS4a140-148, nonapeptide …]	0.15	0.3	1.08		0.21 ± 0.05%	17 ± 5 SFCs/1×10^5cells							
QLAVTIMAI [D2V-NS2a144-152, D2V variant peptide of D1V-NS2a144-152, nonapeptide …]	0.24	0.39	3.85		0.21 ± 0.05%	21±3 SFCs/1×10^5cells						> 1	
QLWTALVSL [D3V-NS2a144-152, D3V variant peptide of D1V-NS2a144-152, nonapeptide …]	0.2	0.45	2.6		0.79 ± 0.15%	62 ± 9 SFCs/1×10^5cells							> 1
AILTVVAAT [D2V-NS4a140-148, D2V variant peptide of D1V-NS4a140-148, nonapeptide …]	0.1	0.2	1.2		0.12 ± 0.05%	10 ± 3 SFCs/1×10^5cells							
